# Literature values in patent publication US11179350B2, “Nutraceutical compositions comprising C60 and Cox-2 inhibitor” (priority 2018, dated 2021).
# Key:
# [1] = more potent than Vitamin C
# mice = mice (Quick et al. 2008)
# rats = conditions: repeated oral administration (Baati et al. 2012)
# [2] = test system: tumor growth and metastasis; conditions: Prylutska et al. 2011
smiles,measurement,setting,value
"c12c3c4c5c1c1c6c7c2c2c8c3c3c9c4c4c%10c5c5c1c1c6c6c%11c7c2c2c7c8c3c3c8c9c4c4c9c%10c5c5c1c1c6c6c%11c2c2c7c3c3c8c4c4c9c5c1c1c6c2c3c41 [C60, Buckminsterfullerene]",antioxidant potency relative to Vitamin C,[1],172 times
same,prolongation of life,mice,prolong life
same,prolongation of life,rats,prolong life
same,tumor growth and metastasis,[2],inhibit tumor growth and metastasis
